Data: US20240409585A1, “MACROCYCLIC IMMUNOMODULATORS” (priority 2021, published 2024)
Read-outs that look alike come from different tables or passages of the source. Bridge positions count the residues as written; N and C are the ends. Square brackets hold non-standard residues; d marks the D form. Peptide text beside a SMILES is read from it. * marks the point of attachment. ξ: configuration not given here. Phe(4-(4-F-Ph)) = N[C@@H](Cc1ccc(-c2ccc(F)cc2)cc1)C(=O)O; Phe(4-COOH) = N[C@@H](Cc1ccc(C(=O)O)cc1)C(=O)O; Bip = N[C@@H](Cc1ccc(-c2ccccc2)cc1)C(=O)O; Phe(3-Me) = Cc1cccc(C[C@H](N)C(=O)O)c1; Cha = N[C@@H](CC1CCCCC1)C(=O)O; Cit = NC(=O)NCCC[C@H](N)C(=O)O; Ile(3ξ) = CCC(C)[C@H](N)C(=O)O; Thr(3ξ) = CC(O)[C@H](N)C(=O)O; ξCha = NC(CC1CCCCC1)C(=O)O; Carboxymethyl = O=C(O)C*; NMeA = CN[C@@H](C)C(=O)O; Orn = NCCC[C@H](N)C(=O)O; Dab = NCC[C@H](N)C(=O)O; Nva = CCC[C@H](N)C(=O)O; Dap = NC[C@H](N)C(=O)O

Molecular target: T1, PE-labeled human PD-L1-Ig binding to Jurkat cell line over-expressing human PD-1 (Jurkat-PD-1) (Homo sapiens, UniProt Q15116)
T1 construct: expressed in transfected cells; host or cells: Jurkat
T1 sequence (Q15116 25-288): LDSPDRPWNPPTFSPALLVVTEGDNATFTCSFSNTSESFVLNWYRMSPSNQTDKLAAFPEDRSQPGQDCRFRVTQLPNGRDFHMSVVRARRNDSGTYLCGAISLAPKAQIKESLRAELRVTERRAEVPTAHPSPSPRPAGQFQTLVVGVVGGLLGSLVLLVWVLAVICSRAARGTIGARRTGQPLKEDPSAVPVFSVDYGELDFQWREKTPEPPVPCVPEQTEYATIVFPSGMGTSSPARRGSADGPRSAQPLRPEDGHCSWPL
Experiment: Jurkat-PD-1 Cell Binding High-Content Screening Assay (CBA): Method 1

[1] = Jurkat-hPD-1 cells, PE-labeled PD-L1-Ig 20 nM final, read-out: Jurkat HPDL1 PD1 IC50 (uM) (Method 1)

Compound	IC50 [1]	IC50 (Jurkat-PD-1 cells, PE-labeled PD-L1-Ig, μM, read-out: CBA Method 1 μM)
Cc1cccc(C[C@@H]2NC(=O)[C@H](CC(=O)O)NC(=O)[C@H](Cc3ccc(C(=O)O)cc3)NC(=O)[C@H](CN)NC(=O)CSC[C@@H](C(=O)N[C@@H](C)C(N)=O)NC(=O)[C@H]([C@@H](C)O)NC(=O)[C@H](C(C)C)NC(=O)[C@H](CC(C)C)NC(=O)[C@H](CCN)NC(=O)[C@@H](CC(C)C)NC(=O)[C@H](C)N(C)C(=O)[C@H](CCCNC(N)=O)NC(=O)[C@H](Cc3ccc(-c4ccccc4)cc3)NC(=O)[C@H](C(C)C)NC2=O)c1 [Compound 1429] ({CH2CO}-[Dap][Phe(4-COOH)]D[Phe(3-Me)]V[Bip][Cit][NMeA][dL][Dab]LVTCA-NH2; thioether N-14)	0.01 µM	
CC(C)C[C@@H]1NC(=O)[C@H](CCN)NC(=O)[C@@H](CC(C)C)NC(=O)[C@H](C)N(C)C(=O)[C@H](CCCNC(=N)N)NC(=O)[C@H](Cc2ccc(-c3ccccc3)cc2)NC(=O)[C@H](C(C)C)NC(=O)[C@H](Cc2c[nH]c3ccccc23)NC(=O)[C@H](CC(=O)O)NC(=O)[C@H](Cc2ccc(O)cc2)NC(=O)[C@H](CC(N)=O)NC(=O)CSC[C@@H](C(=O)N[C@@H](C)C(N)=O)NC(=O)[C@H]([C@@H](C)O)NC(=O)[C@H](C(C)C)NC1=O [Compound 1038] ({CH2CO}-NYDWV[Bip]R[NMeA][dL][Dab]LVTCA-NH2; thioether N-14)	0.13 µM	
Cc1cccc(C[C@@H]2NC(=O)[C@H](CC(=O)O)NC(=O)[C@H](Cc3ccc(OCC(=O)O)cc3)NC(=O)[C@H](CC(N)=O)NC(=O)CSC[C@@H](C(N)=O)NC(=O)[C@H](CC(N)=O)NC(=O)[C@H](C(C)C)NC(=O)[C@H](CC3CCCCC3)NC(=O)[C@H](CCN)NC(=O)[C@@H](CC(C)C)NC(=O)[C@H](C)N(C)C(=O)[C@H](Cc3ccc(OCC(=O)O)cc3)NC(=O)[C@H](Cc3ccc(-c4ccccc4)cc3)NC(=O)[C@H](Cc3ccc(OCC(=O)O)cc3)NC2=O)c1 [Compound 1664] ({CH2CO}-NY(Carboxymethyl)D[Phe(3-Me)]Y(Carboxymethyl)[Bip]Y(Carboxymethyl)[NMeA][dL][Dab][Cha]VNC-NH2; thioether N-14)	0.05 µM	
CCC(C)[C@@H]1NC(=O)[C@H](Cc2ccc(-c3ccccc3)cc2)NC(=O)[C@H](C(C)C)NC(=O)[C@H](Cc2c[nH]c3ccccc23)NC(=O)[C@H](CC(=O)O)NC(=O)[C@H](Cc2ccc(OCC(=O)O)cc2)NC(=O)[C@H](C(C)O)NC(=O)CSC[C@@H](C(=O)N[C@H](CO)C(=O)NCC(=O)N[C@@H](CO)C(N)=O)NC(=O)[C@H](CO)NC(=O)[C@H](C(C)C)NC(=O)C(CC2CCCCC2)NC(=O)[C@H](CCN)NC(=O)[C@@H](CC(C)C)NC(=O)[C@H](C)N(C)C1=O (stereo partly drawn) [Example 5006] ({CH2CO}-[Thr(3ξ)]Y(Carboxymethyl)DWV[Bip][Ile(3ξ)][NMeA][dL][Dab][ξCha]VSC[dS]GS-NH2; thioether N-14)		0.02 µM
CC(C)C[C@@H]1NC(=O)[C@H](Cc2c[nH]c3ccccc23)NC(=O)[C@H](CC(=O)O)NC(=O)[C@H](Cc2ccc(O)cc2)NC(=O)[C@H](Cc2ccccc2)NC(=O)CSC[C@@H](C(=O)N[C@@H](C)C(=O)N[C@@H](CCCN)C(=O)O)NC(=O)[C@H](CO)NC(=O)[C@H](C(C)C)NC(=O)[C@H](CC(C)C)NC(=O)[C@H](CC(N)=O)NC(=O)[C@@H](CC(C)C)NC(=O)[C@H](C)N(C)C(=O)[C@H](C(C)C)NC(=O)[C@H](Cc2ccc(-c3ccccc3)cc2)NC1=O [Compound 2238] ({CH2CO}-FYDWL[Bip]V[NMeA][dL]NLVSCA[Orn]-OH; thioether N-14)	0.01 µM	
CC(C)C[C@@H]1NC(=O)[C@H](CCCCN)NC(=O)[C@@H](CC(C)C)NC(=O)[C@H](C)N(C)C(=O)[C@H](CCCNC(=N)N)NC(=O)[C@H](Cc2ccc(-c3ccccc3)cc2)NC(=O)[C@H](C(C)C)NC(=O)[C@H](Cc2c[nH]c3ccccc23)NC(=O)[C@H](CC(=O)O)NC(=O)[C@H](Cc2ccc(O)cc2)NC(=O)[C@H](CC(N)=O)NC(=O)CSC[C@@H](C(=O)N[C@@H](CO)C(N)=O)NC(=O)[C@H]([C@@H](C)O)NC(=O)[C@H](C(C)C)NC1=O [Compound 1174] ({CH2CO}-NYDWV[Bip]R[NMeA][dL]KLVTCS-NH2; thioether N-14)	0.06 µM	
CC(C)C[C@@H]1NC(=O)[C@H](Cc2c[nH]c3ccccc23)NC(=O)[C@H](CC(=O)O)NC(=O)[C@H](Cc2ccc(O)cc2)NC(=O)[C@H](Cc2ccccc2)NC(=O)CSC[C@@H](C(=O)N[C@@H](C)C(N)=O)NC(=O)[C@H](CO)NC(=O)[C@H](C(C)C)NC(=O)[C@H](CC(C)C)NC(=O)[C@H](CC(=O)O)NC(=O)[C@@H](C)NC(=O)[C@H](C)N(C)C(=O)[C@H](C(C)C)NC(=O)[C@H](Cc2ccc(-c3ccc(F)cc3)cc2)NC1=O [Compound 1825] ({CH2CO}-FYDWL[Phe(4-(4-F-Ph))]V[NMeA][dA]DLVSCA-NH2; thioether N-14)	0.66 µM	
Cc1cccc(C[C@@H]2NC(=O)[C@H](CC(=O)O)NC(=O)[C@H](Cc3ccc(OCC(=O)O)cc3)NC(=O)[C@H]([C@@H](C)O)NC(=O)CSC[C@@H](C(N)=O)NC(=O)[C@H](CCCN)NC(=O)[C@H](C(C)C)NC(=O)[C@H](CC3CCCCC3)NC(=O)[C@H](CC(N)=O)NC(=O)[C@@H](CC(C)C)NC(=O)[C@H](C)N(C)C(=O)[C@H](Cc3ccc(OCC(=O)O)cc3)NC(=O)[C@H](Cc3ccc(-c4ccccc4)cc3)NC(=O)[C@H](Cc3ccc(OCC(=O)O)cc3)NC2=O)c1 [Compound 1680] ({CH2CO}-TY(Carboxymethyl)D[Phe(3-Me)]Y(Carboxymethyl)[Bip]Y(Carboxymethyl)[NMeA][dL]N[Cha]V[Orn]C-NH2; thioether N-14)	0.17 µM	
CC(C)C[C@@H]1NC(=O)[C@H](CCCN)NC(=O)[C@@H](CC(C)C)NC(=O)[C@H](C)N(C)C(=O)[C@H](CCC(=O)O)NC(=O)[C@H](Cc2ccc(-c3ccccc3)cc2)NC(=O)[C@H](C(C)C)NC(=O)[C@H](Cc2c[nH]c3ccccc23)NC(=O)[C@H](CC(=O)O)NC(=O)[C@H](Cc2ccc(O)cc2)NC(=O)[C@H](Cc2ccccc2)NC(=O)CSC[C@@H](C(=O)N[C@@H](CCC(=O)O)C(N)=O)NC(=O)[C@H]([C@@H](C)O)NC(=O)[C@H](C(C)C)NC1=O [Compound 1163] ({CH2CO}-FYDWV[Bip]E[NMeA][dL][Orn]LVTCE-NH2; thioether N-14)	0.04 µM	
CCC[C@@H]1NC(=O)[C@H](C)N(C)C(=O)[C@H](C(C)C)NC(=O)[C@H](Cc2ccc(-c3ccccc3)cc2)NC(=O)[C@H](CC(C)C)NC(=O)[C@H](Cc2c[nH]c3ccccc23)NC(=O)[C@H](CC(=O)O)NC(=O)[C@H](Cc2ccc(O)cc2)NC(=O)[C@H](Cc2ccccc2)NC(=O)CSC[C@@H](C(=O)NCC(N)=O)NC(=O)[C@H](CO)NC(=O)[C@H](C(C)C)NC(=O)[C@H](CC(C)C)NC(=O)[C@H](CC(N)=O)NC1=O [Compound 1803] ({CH2CO}-FYDWL[Bip]V[NMeA][Nva]NLVSCG-NH2; thioether N-14)	0.2 µM	
Cc1cccc(C[C@@H]2NC(=O)[C@H](CC(=O)O)NC(=O)[C@H](Cc3ccc(C(=O)O)cc3)NC(=O)[C@H](Cc3ccc(OCC(=O)O)cc3)NC(=O)CSC[C@@H](C(N)=O)NC(=O)[C@H](CO)NC(=O)[C@H](C(C)C)NC(=O)[C@H](CC(C)C)NC(=O)[C@H](CC(N)=O)NC(=O)[C@@H](CC(C)C)NC(=O)[C@H](C)N(C)C(=O)[C@H](CCCNC(N)=O)NC(=O)[C@H](Cc3ccc(-c4ccccc4)cc3)NC(=O)[C@H](CC(C)C)NC2=O)c1 [Compound 1643] ({CH2CO}-Y(Carboxymethyl)[Phe(4-COOH)]D[Phe(3-Me)]L[Bip][Cit][NMeA][dL]NLVSC-NH2; thioether N-14)	0.08 µM	
